Values after ≈ are worked out from the molar mass of the structure shown. Structures can show the parent of a compound that is named as a salt. Where two headings read alike, the source gives them in different places.
Experiments:
[1] = system: strip of stomach fundus; experiment: Contraction of isolated stomach fundus strip induced by arachidonic acid; assay type: cell-based, Sprague-Dawley rats; conditions: Rattus norvegicus, 0.25 h
Protocol: The stomach was removed from Sprague-Dawley rats, weighing about 180 g., after the animals were fasted overnight. A strip of stomach fundus was suspended under initial tension of 0.6 g. in a 10 ml. organ bath containing Tyrode solution. Arachidonic acid (1.0 x 10^-5 g/ml.) was employed as the spasmogen. Several doses of the test compound were added to the individnal bath fluid 15 minutes before the addition of arachidonic acid. The value of contraction induced by arachidonic acid was measured and plotted as a dose-activity curve. The ED50 value of each test compound was obtained by interpolation from the dose-activity curve.

[2] = system: erythema; experiment: Ultra-violet erythema test, oral administration; assay type: in vivo, Hartley rats; conditions: ten animals per group; oral suspension, half one hour before and half just after ultra-violet radiation; erythema scored two hours later; effective when total of 3 points below 1.5; read-out: Score
Protocol: Ten male 5 week old Hartley rats, each weighing about 350 g., were used per group. The backs of each animal were depilated 24 hours before the test. An adhesive tape with 3 small holes of 9 mm. diameter was placed on the depilated skin and then the animal was exposed to ultra-violet radiation from an ultra-violet lamp (500 W, manufactured by Engelhard Hanovia Inc.) at a distance of 13 cm. for 80 seconds. Two hours later, the degree of erythema was estimated on the basis of the following scores: • 1.0 : eryhthema with clear border, • 0.5 : erythema with unclear border, • 0.0 : scarcely any erythema.
The valuation was determined as follows:
Each dosage of the test compound was administered orally in a suspension form in 20 ml. of 0.5% aqueous methyl cellosolve aqueous solution. Half of the test sample was administered one hour before the radiation and the remaining half of the test solution was administered just after radiation.

[3] = arachidonic acid 1.0 x 10^-5 g/ml. as spasmogen, test compound added 15 minutes before, interpolated from dose-activity curve, read-out: ED50 (the source's name)

IC50 [1, 3]	Compound	IC50 ([1]; read-out: ED50)	minimal effective dose [2]
0.5 µg/mL (≈ 1.77 µM)	COCC(CO)c1ccc(C2CCCCC2)c(Cl)c1 (centres unmarked) [7-(2), 2-(3-chloro-4-cyclohexylphenyl)-3-methoxypropanol]	–	–
–	CCCOCC(C(=O)[O-])c1ccc(C2CCCCC2)cc1.[Na+] (centres unmarked) [12-(2), sodium 2-(4-cyclohexylphenyl)-3-propoxypropionate]	2.6 µg/mL	8 to 10 mg/kg
1.2 µg/mL (≈ 4.46 µM)	OCC(CO)c1ccc(C2CCCCC2)c(Cl)c1 [Example 7-(1), 2-(3-chloro-4-cyclohexylphenyl)propane-1,3-diol]	–	8 to 10 mg/kg
–	COC(=O)C(CN1CCCCC1)c1ccc(C2CCCCC2)c(Cl)c1 (centres unmarked) [Example 11, methyl 2-(3-chloro-4-cyclohexylphcnyl)-3-piperidinopropionate hydrochloride]	–	8 to 10 mg/kg
–	CC(=O)CC(CO)c1ccc(C2CCCCC2)cc1 (centres unmarked) [16-(3), 2-(4-cyclohexylphenyl)-3-acetylpropanol]	–	8 to 10 mg/kg
–	COCC(COC(=O)COc1ccc(Cl)cc1)c1ccc(C2CCCCC2)cc1 (centres unmarked) [Example 20, 1-(4-chlorophenoxyacetoxy)-2-(4-cyclohexylphenyl)-3-methoxypropane]	–	8 to 10 mg/kg
22 µg/mL (≈ 70.6 µM)	CS(=O)(=O)NCC(CO)c1ccc(C2CCCCC2)cc1 (centres unmarked) [14-(3), 2-(4-cyclohexylphenyl)-3-mesylaminopropanol]	–	8 to 10 mg/kg
0.084 µg/mL	COCC(C(=O)O)c1ccc(C2CCCCC2)c(Cl)c1 (centres unmarked) [4-(3), sodium 2-(3-chloro-4-cyclohexylphenyl)-3-methoxypropionatc]	–	8 to 10 mg/kg
2.6 µg/mL (≈ 10.5 µM)	O=C(O)C(CO)c1ccc(C2CCCCC2)cc1 (centres unmarked) [Example 2, p-cyclohexyltropic acid]	–	8 to 10 mg/kg
1.3 µg/mL (≈ 4.96 µM)	COCC(C(=O)O)c1ccc(C2CCCCC2)cc1 (centres unmarked) [17-(2), 2-(4 cyclohexylphenyl)-3-methoxypropionic acid]	–	8 to 10 mg/kg
–	CNCC(C(=O)O)c1ccc(C2CCCCC2)cc1 (centres unmarked) [Example 22, sodium 2-(4-cyclohexylphenyl)-3-methylaminopropionate monohydrate]	–	8 to 10 mg/kg
4.2 µg/mL (≈ 13.6 µM)	CC(=O)CC(C(=O)O)c1ccc(C2CCCCC2)c(Cl)c1 (centres unmarked) [24-(2), 2-(3-chloro-4-cyclohexylphenyl)-3-acetylpropionic acid]	–	8 to 10 mg/kg
3.2 µg/mL (≈ 11.7 µM)	CC(=O)CC(C(=O)O)c1ccc(C2CCCCC2)cc1 (centres unmarked) [15-(2), 2-(4-cyclohexylphenyl)-3-acetylpropionic acid]	–	8 to 10 mg/kg
–	COCC(CO)c1ccc(C2CCCCC2)c(Cl)c1 (centres unmarked) [Example 23, 2-(3-chloro-4-cyclohexylphenyl)-3-methoxypropanol]	–	8 to 10 mg/kg
0.26 µg/mL (≈ 0.919 µM)	O=C(O)C(CO)c1ccc(C2CCCCC2)c(Cl)c1 (centres unmarked) [Example 9, m-chloro-p-cyclohexyl tropic acid]	–	8 to 10 mg/kg
–	CC(=O)OCC(COC(C)=O)c1ccc(C2CCCCC2)c(Cl)c1 [Example 8, 1,3-diacetoxy-2-(3-chloro-4-cyclohexylphenyl)propane]	–	8 to 10 mg/kg
–	CC(=O)Oc1ccccc1C(=O)O [aspirin, reference compound]	3.1 µg/mL (≈ 17.2 µM)	–
–	CNCC(CO)c1ccc(C2CCCCC2)cc1 (centres unmarked) [21-(2), 2-(4-cyclohcxylphenyl)-3-mcthylaminopropanol hydrochloride]	–	8 to 10 mg/kg

Compound	IC50 [1, 3]	IC50 ([1]; read-out: ED50)	minimal effective dose [2]
COC(=O)C(COC(C)=O)c1ccc(C2CCCCC2)c(Cl)c1 (centres unmarked) [5-(3), methyl 3-acetoxy-2-(3-chloro-4-cyclohexylphenyl) propionate]	0.12 µg/mL (≈ 0.354 µM)	–	8 to 10 mg/kg

Source: patent EP0000644A2, “Lower cycloalkyl substituted-benzene derivatives, the preparation thereof and their pharmaceutical compositions” (FUJISAWA PHARMACEUTICAL CO., LTD., priority 1977, dated 1979)
